Laboratory results as given in patent publication US20220347085A1, “REPELLENT COMPOSITION AND USES” (Université Bourgogne, priority 2019, published 2022).

Legend:
Type in all cases: in vivo
[1] = test system: Drosophila melanogaster; assay: Test of the reversible effect (waking from anesthesia), Drosophila melanogaster; conditions: after 10 minutes at 2%, then placed in empty device
Method: Test of the Reversible Effect.
The devices used were those described for the study of the anesthesia such as described in example 2 above. The application conditions for the propanoic acid or the butyric acid were similar to those of the anesthesia test described in example 2 above. The flies were brought into the presence of 2% propanoic acid or 2% butyric acid for 10 minutes. At the end of 10 minutes of observation of the anesthesia (example 2 above), the flies were removed from the device and placed into another device which was identical but “empty”, i.e. without solvent or odor (odor=2% propanoic acid in the solvent or 2% butyric acid in the solvent, respectively). For each empty device, the total number of flies introduced and observed were 20 males and 30 females previously exposed to 2% propanoic acid and removed from this anesthetizing environment, and 6 males and 7 females previously exposed to 2% butyric acid and removed from this anesthetizing environment.
The flies were considered as woken from the anesthesia when they got back up on their legs and moved in the device.
The time required for waking the flies following their anesthesia was then measured.

[2] = test system: Drosophila suzukii; assay: Test in a box (repellent effect), Drosophila suzukii; conditions: 2% in solvent, 1250 cm^3 box
Method: (§1) 2. Tests “in a Box” (Repellent Effect)
(§2) The sensitivity of the drosophilae was evaluated over a period of between 0 minutes and 24 hours, according to the conditions (see results) in closed and transparent boxes of 1250 cm^3.
(§3) An odor source, i.e. a composition comprising butyric acid or propionic acid in paraffin oil, was deposited on a filter paper at the base of a 50 mm petri dish. The petri dish is introduced into a test box and covered with a gauze Securimed M8202 sterile gauze pad) in order to prevent the flies from getting stuck on the oily odorous compound.
(§4) The concentrations used were 2%, 6% or 20% propionic acid.
(§5) A second Petri dish containing 5 to 6 grams of synthetic food used for breeding drosophilae in laboratories was placed in the test box, i.e. 6.5% maize flour, 6.5% (v/v) yeast extract, 1% (v/v) agar-agar, and 3% (v/v) of a 0.1% (v/v) antifungal solution (Tegosept (Apex)) in ethanol at 95%. This latter provides the water and/or the food which the flies needed during the test, and eliminated the possibility of an event due to dehydration of the individuals tested.
(§6) Drosophila melanogaster or suzukii were then introduced by groups into the test box, and moved there freely over time. Their behavior in the presence of a composition as mentioned above was observed and photographed (Apple iPhone 6S).

[3] = test system: Drosophila suzukii; assay: Evaluation of the copulation of Drosophila suzukii; conditions: 10 min observation
Method: 2. Evaluation of the Copulation From the films recorded for studying the courtship behavior of Drosophila suzukii, a percentage of the number of pairs copulating during the 10 minutes of observation was calculated on the basis of the composition in which the filter paper was soaked. A statistical evaluation was carried out, and different tests were performed. In particular, a Kruskal-Wallis test followed by a post-hoc Dunn's Multiple Comparison Test were carried out (GraphPad, Prism6) in order to quantify the influence, on the number of copulating individuals, of the composition in which the paper is soaked and which involves a release of volatile compounds and an odor perceived.

[4] = test system: Bactrocera oleae; assay: Courtship of male Bactrocera oleae towards females, olfactory exposure
Method: 1. […] Insect Behay. 2012 [6] and Menage Cindy, personal communication). Naive males were isolated in tubes, individually, upon emerging from their puparium. The females were selected to be virgin and were stored in tubes, together. These tubes were placed in an inclined manner in incubators, for which a temperature of 25° C. was kept constant. A 12 hour/12 hour day/night cycle was applied. […] Each alveolus was cylindrical, transparent and closed, and of a volume of 5.9 cm^3. FIG. 16 is a schematic representation of an alveolus of the device used. • The papers were then each soaked in […] of a composition of 2%, 4% or 5% propionic acid. A gauze (netting) made it possible to physically isolate the B. ° lea from the odor corresponding to the propionic acid. 2 pairs (one per alveolus) were observed independently. Each pair was made up of one male and one female, each originating from the tubes mentioned above. • The behavior was filmed for 10 minutes, under white light, using a Basler acA1920-155 um USB 3.0 camera. Each film was recorded (Basler Video Recording Software V1.3) and then analyzed. For each concentration of the compositions used, the number of pairs of flies was, respectively, 2, 5, 2, 2, 2 and 6, 6, 4, 4. • A negative control was carried out comprising only the solvent, i.e. paraffin oil, in order to verify the absence of an effect of the solvent on the flies.
A courtship percentage was calculated, and represents the time during which the male courts the female during the 10 minutes of observation (recording). The different steps consist in movement of the wings (rapid “buzzing” and/or vertical vibrations), face movements, lateral movements, “dances” in rapid circles and in the direction of the female (Benelli, J. Insect Beahv 2012 [6] and Ménagé Cindy, personal communication).

[5] = test system: Drosophila melanogaster; assay: Test in a box (repellent effect), Drosophila melanogaster; conditions: 1250 cm^3 box; for courtship and copulation in the box / survival of flies in the box: 24 hours
Method: as §1, §2, §3, §4, §5, §6

Row | Structure (SMILES) | time required to wake up fully from the anesthesia ([1]; females) | time required to wake up fully from the anesthesia ([1]; males) | repellent behavior (location of flies relative to odor source) [2] | anesthesia at a distance in the box ([2]; males and females) | time until death in the box ([2]; males and females) | reduction of the proportion of copulation ([3]; 0.1% in solvent) | proportion of copulation ([3]; 0.5% in solvent) | reduction of the proportion of copulation ([3]; 0.5% in solvent) | proportion of copulation ([3]; 1% in solvent) | courtship of males towards females ([4]; 2% in solvent, flies aged 3 to 6 days, compared with solvent alone) | courtship of males towards females ([4]; 2% in solvent, flies aged 13 to 19 days, compared with solvent alone) | courtship of males towards females ([4]; 4% in solvent, flies aged 3 to 6 days) | courtship of males towards females ([4]; 5% in solvent, flies aged 3 to 6 days) | courtship of males towards females ([4]; 5% in solvent, flies aged 13 to 19 days, compared with solvent alone) | courtship and copulation in the box ([5]; 2% in paraffin oil) | survival of flies in the box ([5]; 2% in paraffin oil) | courtship and copulation in the box ([5]; 6% in paraffin oil) | survival of flies in the box ([5]; 6% in paraffin oil) | anesthesia at a distance in the box ([5]; 20% in solvent) | repellent behavior (location of flies relative to odor source) ([5]; 20% in solvent)
1 | CCCC(=O)O [butyric acid] | 4.5 min | 6 min | remained away from the filter soaked in butyric acid | anesthetized | 20 h | 70.55% | 3.03% | 83.03% | zero | – | – | – | – | – | – | – | – | – | – | –
2 | CCC(=O)O [propionic acid] | 9 min | 23 min | remained preferably away from said odor | anesthetized in the hour which followed | – | 58% | zero | – | zero | significantly reduced | significantly reduced | virtually nonexistent | virtually nonexistent | significantly reduced | court and copulate | still alive after 24 hours | court and copulate | still alive after 24 hours | anesthetized in the test hour | keep away from the filter paper
